Here are results for one compound from patent US9517208B2, “Abuse-deterrent dosage forms” (PURDUE PHARMA L.P., priority 2013, dated 2016).

Structures are written as SMILES.

The data set is described as follows: Osmolality of mixtures of crushed tablets (or drug solution) in distilled water, Osmometer Model 3250. Format: physicochemical. To be noted: 1 mg/ml, without dextrose, sodium chloride and potassium phosphate dibasic (control). Here is the method: The osmolality of the resulting solution may be measured by using an osmometer (e.g., Advanced® Osmometer Model 3250, manufactured by Advanced Instruments, Inc., the User's Guide (3255 Rev13 042710) of which is herein incorporated by reference).
To determine whether mixtures formed by crushing tablets formulated prior to the present invention and mixing the crushed tablets with 3 mL or 5 mL of distilled water are hypertonic, a 30 mg Roxicodone® tablet^1 (oxycodone hydrochloride tablets USP) was crushed with a mortar and pestle to a powder. […]
To determine whether the mixtures (i.e., solutions, suspensions or gels) formed by crushing these tablets and mixing the crushed tablets with 3 mL or 5 mL of distilled water are hypertonic, one tablet of each formulation was crushed with a mortar and pestle. […] The osmolality of the resulting mixtures was measured using Osmometer Model 3250 manufactured by Advanced Instruments, Inc. The following results were obtained: […]
To determine whether the mixtures (i.e., solutions, suspensions or gels) formed by crushing these tablets and mixing the crushed tablets with 3 mL or 5 mL of distilled water are hypertonic, one tablet from each blend was crushed with a mortar and pestle to a powder. […] The osmolality of the resulting mixtures was measured twice using Osmometer Model 3250 manufactured by Advanced Instruments, Inc. The following results were obtained: […]

As to `COc1ccc2c3c1O[C@H]1C(=O)CC[C@H]4[C@@H](C2)N(C)CC[C@]314.O=C(O)C(O)C(O)C(=O)O` [hydrocodone bitartrate], the Osmolality of solution is recorded as 4 mOsmol.
